According to PubChem BioAssay AID1082 (University of Pittsburgh Molecular Library Screening Center, 2008):
Values joined by “and” are separate entries in the source; they are usually repeats but may differ in a detail not shown here. Identical values can stand only once. Active and inactive are the calls of the source. How the calls were made is not given here.

Each compound was assayed against Serine/threonine-protein kinase PLK1 (Homo sapiens) (UniProt P53350) (assay: Plk1 PBD phosphopeptide interaction blockers – biochemical, fluorescence polarization, synthesized analogs, IC50, SAR follow-up (AID 1082)). Details: PLK1 PBD phosphopeptide binding.
Sequence of Serine/threonine-protein kinase PLK1 (Homo sapiens) (P53350 whole entry, looked up): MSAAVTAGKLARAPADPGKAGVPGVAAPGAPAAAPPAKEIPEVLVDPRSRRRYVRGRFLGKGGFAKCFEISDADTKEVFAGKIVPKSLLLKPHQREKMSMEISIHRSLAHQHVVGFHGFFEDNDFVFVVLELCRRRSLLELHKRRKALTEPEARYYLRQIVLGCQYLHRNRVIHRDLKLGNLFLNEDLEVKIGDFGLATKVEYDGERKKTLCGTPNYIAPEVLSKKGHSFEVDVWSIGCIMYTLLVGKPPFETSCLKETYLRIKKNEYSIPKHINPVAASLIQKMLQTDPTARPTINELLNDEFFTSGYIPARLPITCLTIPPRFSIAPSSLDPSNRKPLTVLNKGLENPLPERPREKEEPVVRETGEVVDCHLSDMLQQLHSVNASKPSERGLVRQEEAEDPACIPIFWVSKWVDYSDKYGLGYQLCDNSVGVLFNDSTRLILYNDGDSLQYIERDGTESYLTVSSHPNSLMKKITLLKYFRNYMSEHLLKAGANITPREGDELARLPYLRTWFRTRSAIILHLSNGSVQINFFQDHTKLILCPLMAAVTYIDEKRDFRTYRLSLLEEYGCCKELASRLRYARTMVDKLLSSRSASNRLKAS

Structure (SMILES) | IC50
Cn1c(N)c(C(=O)Nc2ccccc2)c(=O)[nH]c1=O | > 50 µM (inactive)
CCOC(=O)c1ccc(NC(=O)c2c(N)n(C)c(=O)[nH]c2=O)cc1 | > 50 µM (inactive)
CCOC(=O)CCCCCNC(=O)c1c(N)n(C)c(=O)n(C)c1=O | > 50 µM (inactive)
COC(=O)c1ccccc1NC(=O)c1c(O)c2c([nH]c1=O)CCCC2 | > 50 µM (inactive)
CCOC(=O)c1ccc(NC(=O)c2c(NCc3ccccc3)[nH]c(=O)[nH]c2=O)cc1 | > 50 µM (inactive)
CCOC(=O)c1ccc(NC(=O)c2c(O)[nH]c(=O)[nH]c2=O)cc1 | > 50 µM (inactive) and 2.89 µM
CCOC(=O)c1ccc(NC(=O)c2c(N)n(C)c(=O)n(C)c2=O)cc1 | > 50 µM (inactive)
O=C(Nc1ccccc1)c1c(O)[nH]c(=S)[nH]c1=O | > 50 µM (inactive)
O=c1[nH]c(=S)[nH]c(O)c1/C=N/Nc1ccccc1 | > 50 µM (inactive)
CCOC(=O)c1ccccc1NC(=O)c1c(N)n(C)c(=O)[nH]c1=O | > 50 µM (inactive)
CCOC(=O)c1ccccc1NC(=O)c1c(O)[nH]c(=S)[nH]c1=O | > 50 µM (inactive)
CCOC(=O)c1cccc(NC(=O)c2c(NCc3ccccc3)[nH]c(=O)[nH]c2=O)c1 | > 50 µM (inactive)
Cn1cc(C(=O)CNc2ccccc2)c(=O)n(C)c1=O | > 50 µM (inactive)
Cc1ccc(N=Cc2c(O)n(-c3ccc(C)cc3)c(=O)[nH]c2=O)cc1 | > 50 µM (inactive)
CCOC(=O)c1ccc(NC(=O)c2c(N)n(Cc3ccccc3)c(=O)[nH]c2=O)cc1 | > 50 µM (inactive)
Cn1c2c(c(=O)n(C)c1=O)C(c1ccc(C(F)(F)F)cc1)CC(=O)N2 (stereo not given) | > 50 µM (inactive)
CCOC(=O)c1cccc(NC(=O)c2c(O)[nH]c(=O)[nH]c2=O)c1 | > 50 µM (inactive)
CCOc1ccc(NC(=O)c2c(N)n(C)c(=O)[nH]c2=O)cc1 | > 50 µM (inactive)

Structure (SMILES) | IC50
CC(C)c1ccc(NC(=O)COC(=O)c2c[nH]c(=O)[nH]c2=O)cc1 | > 50 µM (inactive)
CCCCOC(=O)c1ccc(NC(=O)c2c(N)n(C)c(=O)[nH]c2=O)cc1 | > 50 µM (inactive)
CCC(=O)Oc1ccc(C(=O)Nc2c[nH]c(=O)[nH]c2=O)cc1 | > 50 µM (inactive)
CCOC(=O)c1ccc(NS(=O)(=O)c2c(N)n(C)c(=O)n(C)c2=O)cc1 | > 50 µM (inactive)
O=c1[nH]c(NC2CCCCC2)c([N+](=O)[O-])c(=O)[nH]1 | > 50 µM (inactive)
CCCOc1ccc(C(=O)Nc2c[nH]c(=O)[nH]c2=O)cc1 | > 50 µM (inactive)
CCCCOC(=O)c1ccc(NC(=O)c2c(O)[nH]c(=O)[nH]c2=O)cc1 | > 50 µM (inactive)
CCOC(=O)c1cccc(NC(=O)c2c(N)n(C)c(=O)[nH]c2=O)c1 | > 50 µM (inactive)
O=C(N/N=C/c1c(O)[nH]c(=O)[nH]c1=O)c1ccncc1 | > 50 µM (inactive)
Cc1ccc(NC(=O)c2c[nH]c(=O)[nH]c2=O)cc1 | > 50 µM (inactive)
CCOc1ccc(NC(=O)c2c(O)[nH]c(=O)[nH]c2=O)cc1 | > 50 µM (inactive)
CCOC(=O)c1ccc(NS(=O)(=O)c2c(N)[nH]c(=O)[nH]c2=O)cc1 | > 50 µM (inactive)
Cn1c(N)c(S(=O)(=O)Nc2ccccc2)c(=O)n(C)c1=O | > 50 µM (inactive)
O=C(Nc1ccccc1)c1c(O)[nH]c(=O)[nH]c1=O | > 50 µM (inactive)
CC1(C)CC(=O)C(C2(O)C(=O)NC(=O)NC2=O)=C(O)C1 | > 50 µM (inactive)
COc1ccc(/C=C/C(=O)c2c(O)n(CCC3=CCCCC3)c(=O)[nH]c2=O)cc1 | > 50 µM (inactive)
CCOC(=O)c1ccccc1NC(=O)c1c(O)[nH]c(=O)[nH]c1=O | > 50 µM (inactive)
